Legend:
[1] = test system: H22 mouse liver cancer cells; assay: Anti-tumor efficacy in vivo (transplanted solid tumor, tumor weight); settings: H22 subcutaneous tumor in mice, tail vein injection on days 2 and 7 post-inoculation, tumors weighed after 2 weeks of administration
Method: The transplantation of animal tumors was adopted as the experimental method, with 6 mice per group, and H22 mouse liver cancer cells were inoculated subcutaneously into the right axilla of the mice to form solid tumors. Single-dose administrations via tail vein injection were performed on days 2 and 7 post-inoculation, respectively. After 2 weeks of administration, the mice were sacrificed via cervical dislocation, and the tumors were excised and weighed. Tumor Inhibition Rate = [G-H/G]*100% (G represents the average tumor weight of the blank control group, H represents the average tumor weight of the treatment group). Table 4. Results of Anti-tumor Effect

[2] = test system: pancreatic cancer cell MiaPaCa-2; assay: Cytotoxicity assay, MTT staining; format: cell-based; settings: Homo sapiens, MIA PaCa-2, MiaPaCa-2, 10 nM, 48 h
Method: (§1) Cytotoxicity assay of PEGylated irinotecan E10-1 (wherein the polyethylene glycol component is derived from E4-1) was performed using MTT staining. A blank control group containing no drugs but only culture medium, a positive control group containing irinotecan, and an experimental group containing PEGylated irinotecan (E10-1) were respectively set up. The drug concentration of the positive control group and experimental group was 10 nM, with 6 replicate wells each, and the assay was repeated three times. Six types of cancer cells were selected as in vitro cancer cell models: human colon cancer cell COLO205, human colon adenocarcinoma cell HT29, human lung adenocarcinoma cell A549, pancreatic cancer cell MiaPaCa-2, human ovarian cancer cell A2780, and human ovarian adenocarcinoma cell OVCAR-3.
(§2) Cells were inoculated onto a 96-well plate at a density of 1×10^4 cells/well, with 100 µL of cell suspension added to each well. After the inoculation, the cells were incubated in a cell culture incubator at 37°C, 4% CO2 for 24 h. The old culture medium was aspirated, and then 100 µL of culture medium containing 10 nM E10-1 was added to each experimental group, 100 µL of culture medium containing 10 nM irinotecan was added to each positive control group, and 100 µL of fresh culture medium was added to the blank control group. After further incubation for 48 h, 20 µL of 5 mg/mL MTT in PBS buffer was added to each well. After incubating the cancer cells with MTT for 4 h, the mixture of culture medium and MTT buffer was aspirated, and then DMSO (150 µL/well) was added to dissolve the blue-purple crystalline product of formazan in viable cells. The 96-well plate was gently shaken until the crystalline product was fully dissolved, and then a microplate reader was used to measure the absorbance at 490 nm. [formula]

[3] = test system: human ovarian adenocarcinoma cell OVCAR-3; assay: Cytotoxicity assay, MTT staining; format: cell-based; settings: OVCAR-3, 10 nM, 48 h
Method: as §1, §2

[4] = test system: human colon cancer cell COLO205; assay: Cytotoxicity assay, MTT staining; format: cell-based; settings: COLO 205, COLO205, 10 nM, 48 h
Method: as §1, §2

[5] = test system: human colon adenocarcinoma cell HT29; assay: Cytotoxicity assay, MTT staining; format: cell-based; settings: HT-29, HT29, 10 nM, 48 h
Method: as §1, §2

[6] = test system: human ovarian cancer cell A2780; assay: Cytotoxicity assay, MTT staining; format: cell-based; settings: A2780, 10 nM, 48 h
Method: as §1, §2

[7] = test system: human lung adenocarcinoma cell A549; assay: Cytotoxicity assay, MTT staining; format: cell-based; settings: A549, 10 nM, 48 h
Method: as §1, §2

For `CCc1c2c(nc3ccc(OC(=O)N4CCC(N5CCCCC5)CC4)cc13)-c1cc3c(c(=O)n1C2)COC(=O)[C@]3(O)CC` [irinotecan], the “Tumor Inhibition Rate” value [1] was 30.3%, the viability at 0.01 µM [2] was 76% and the viability at 0.01 µM [3] was 75%. It also gave a viability at 0.01 µM [4] of 76%, a viability at 0.01 µM [5] of 74% and a viability at 0.01 µM [6] of 73%. The viability at 0.01 µM [7] was 70%.
